Experimental data published in publication PMC6718736, “Validation of in vitro methods for human cytochrome P450 enzyme induction: Outcome of a multi-laboratory study” (Toxicology in Vitro, 2019).
Where two headings read alike, the source gives them in different places.

Experiments:
[1] = cited from earlier work
CYP1A2 [2] = experiment: CYP1A2 enzyme induction assay in cryopreserved primary human hepatocytes (PHH); type: in vitro ADME; conditions: for Assigned classification CYP1A2: PHH;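 as to Assigned classification CYP1A2: code 1 means positive inducer and 0 means non-inducer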
CYP2B6 [3] = experiment: CYP2B6 enzyme induction assay in cryopreserved HepaRG cells (bupropion probe, LC/MS); type: in vitro ADME, human; conditions: HepaRG; also: key: 1=Positive=inducer; 0=Negative=non-inducer
CYP3A4 [4] = experiment: CYP3A4 enzyme induction assay in cryopreserved primary human hepatocytes (PHH); conditions: for Assigned classification CYP3A4: PHH
CYP2B6 [5] = experiment: CYP2B6 enzyme induction assay in cryopreserved primary human hepatocytes (PHH); type: in vitro ADME; conditions: PHH;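 also: code 1 means positive inducer and 0 means non-inducer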
CYP3A4 [6] = conditions: CYP3A4, human in vivo reference classification (Table 11); cited from earlier work
CYP1A2 [7] = conditions: CYP1A2, human; ref Table 1; cited from earlier work
CYP1A2 [8] = experiment: CYP1A2 enzyme induction assay in cryopreserved HepaRG cells (phenacetin probe, LC/MS); type: in vitro ADME, human; conditions: for Assigned classification CYP1A2: HepaRG; as to Assigned classification CYP1A2: key: 1=Positive=inducer; 0=Negative=non-inducer
CYP3A4 [9] = experiment: CYP3A4 enzyme induction assay in cryopreserved HepaRG cells (midazolam probe, LC/MS); type: in vitro ADME, human; conditions: for Assigned classification CYP3A4: HepaRG; as to Assigned classification CYP3A4: key: 1=Positive=inducer; 0=Negative=non-inducer
[10] = human in vivo plasma concentration, normal dose
[11] = human in vivo, normal dose (Table 10)

In the case of `C[C@@H]1CC[C@H]2[C@@H](C)C(=O)O[C@@H]3O[C@@]4(C)CC[C@@H]1[C@]32OO4` [Artemisinin], the Cmax [1, 10] is listed as 1 to 2 µM and the Cmax [1, 11] is listed as 1 to 2 µM.

For `COCCc1ccc(OCC(O)CNC(C)C)cc1` (stereo not drawn) [Metoprolol], the “Prediction in vivo inducer” value (CYP1A2 [2]; CYP1A2, PHH, Cmax/F2 >0.5 criterion) was “No”, the Induction in vitro (CYP1A2 [2]; CYP1A2, PHH, positive in one donor in each of the three laboratories) was “No” and the “Assigned classification CYP1A2” value (CYP1A2 [2]; Lab 1, batch 0 6 A) was 0. For the same compound, the “Assigned classification CYP1A2” value (CYP1A2 [2]; Lab 1, batch 4 0 8) was 1, the “Assigned classification CYP1A2” value (CYP1A2 [2]; Lab 1, batch 8 0 8) was 1 and the “Assigned classification CYP1A2” value (CYP1A2 [2]; Lab 2, batch 0 6 A) was 0. For the same compound, the “Assigned classification CYP1A2” value (CYP1A2 [2]; Lab 2, batch 4 0 8) was 0, the “Assigned classification CYP1A2” value (CYP1A2 [2]; Lab 2, batch 8 0 8) was 0 and the “Assigned classification CYP1A2” value (CYP1A2 [2]; Lab 3, batch 0 6 A) was 1. The “Assigned classification CYP1A2” value (CYP1A2 [2]; Lab 3, batch 4 0 8) was 0, the “Assigned classification CYP1A2” value (CYP1A2 [2]; Lab 3, batch 8 0 8) was 0 and the “Assigned classification CYP2B6” value (CYP2B6 [3]; Lab 1, batch 20) was 0. The “Assigned classification CYP2B6” value (CYP2B6 [3]; Lab 1, batch 35) was 0, the “Assigned classification CYP2B6” value (CYP2B6 [3]; Lab 1, batch 36) was 0 and the “Assigned classification CYP2B6” value (CYP2B6 [3]; Lab 2, batch 20) was 0. The “Assigned classification CYP2B6” value (CYP2B6 [3]; Lab 2, batch 35) was 0, the “Assigned classification CYP2B6” value (CYP2B6 [3]; Lab 2, batch 36) was 0 and the “Assigned classification CYP2B6” value (CYP2B6 [3]; Lab 3, batch 20) was 0. The “Assigned classification CYP2B6” value (CYP2B6 [3]; Lab 3, batch 35) was 0, the “Assigned classification CYP2B6” value (CYP2B6 [3]; Lab 3, batch 36) was 0 and the Cmax [1, 10] was 0.14 to 0.38 µM. The Cmax [1, 11] was 0.14 to 0.38 µM, the Induction in vitro (CYP3A4 [4]; CYP3A4, PHH) was “No” and the “Prediction in vivo inducer” value (CYP3A4 [4]; CYP3A4, PHH) was “No”. The “Prediction in vivo inducer” value (CYP3A4 [4]; CYP3A4, PHH, Cmax/F2 >0.5 criterion) was “predicted to be a non-inducer in vivo”, the “Assigned classification CYP3A4” value (CYP3A4 [4]; Lab 1, batch 0 6 A) was 0 and the “Assigned classification CYP3A4” value (CYP3A4 [4]; Lab 1, batch 4 0 8) was 0. The “Assigned classification CYP3A4” value (CYP3A4 [4]; Lab 1, batch 8 0 8) was 0, the “Assigned classification CYP3A4” value (CYP3A4 [4]; Lab 2, batch 0 6 A) was 1 and the “Assigned classification CYP3A4” value (CYP3A4 [4]; Lab 2, batch 4 0 8) was 0. For the same compound, the “Assigned classification CYP3A4” value (CYP3A4 [4]; Lab 2, batch 8 0 8) was 0, the “Assigned classification CYP3A4” value (CYP3A4 [4]; Lab 3, batch 0 6 A) was 1 and the “Assigned classification CYP3A4” value (CYP3A4 [4]; Lab 3, batch 4 0 8) was 0. The “Assigned classification CYP3A4” value (CYP3A4 [4]; Lab 3, batch 8 0 8) was 0, the “Assigned classification CYP2B6” value (CYP2B6 [5]; Lab 1, batch 0 6 A) was 0 and the “Assigned classification CYP2B6” value (CYP2B6 [5]; Lab 1, batch 4 0 8) was 0. For the same compound, the “Assigned classification CYP2B6” value (CYP2B6 [5]; Lab 1, batch 8 0 8) was 0, the “Assigned classification CYP2B6” value (CYP2B6 [5]; Lab 2, batch 0 6 A) was 0 and the “Assigned classification CYP2B6” value (CYP2B6 [5]; Lab 2, batch 4 0 8) was 0. For the same compound, the “Assigned classification CYP2B6” value (CYP2B6 [5]; Lab 2, batch 8 0 8) was 0, the “Assigned classification CYP2B6” value (CYP2B6 [5]; Lab 3, batch 0 6 A) was 1 and the “Assigned classification CYP2B6” value (CYP2B6 [5]; Lab 3, batch 4 0 8) was 0. For the same compound, the “Assigned classification CYP2B6” value (CYP2B6 [5]; Lab 3, batch 8 0 8) was 0, the Induction in vivo (CYP3A4 [6]) was “No” and the Induction in vivo (CYP1A2 [7]) was “No”. The “Prediction in vivo inducer” value (CYP1A2 [8]; CYP1A2, HepaRG cells, Cmax/F2 >0.5 criterion) was “No”, the Induction in vitro (CYP1A2 [8]; CYP1A2, HepaRG cells, positive in one batch in each of the three laboratories) was “No” and the “Assigned classification CYP1A2” value (CYP1A2 [8]; Lab 1, batch 20) was 0. The “Assigned classification CYP1A2” value (CYP1A2 [8]; Lab 1, batch 35) was 0, the “Assigned classification CYP1A2” value (CYP1A2 [8]; Lab 1, batch 36) was 0 and the “Assigned classification CYP1A2” value (CYP1A2 [8]; Lab 2, batch 20) was 0. For the same compound, the “Assigned classification CYP1A2” value (CYP1A2 [8]; Lab 2, batch 35) was 1, the “Assigned classification CYP1A2” value (CYP1A2 [8]; Lab 2, batch 36) was 0 and the “Assigned classification CYP1A2” value (CYP1A2 [8]; Lab 3, batch 20) was 0. For the same compound, the “Assigned classification CYP1A2” value (CYP1A2 [8]; Lab 3, batch 35) was 0, the “Assigned classification CYP1A2” value (CYP1A2 [8]; Lab 3, batch 36) was 0 and the Induction in vitro (CYP3A4 [9]; CYP3A4, HepaRG cells) was “No”. For the same compound, the “Prediction in vivo inducer” value (CYP3A4 [9]; CYP3A4, HepaRG cells) was “No”, the “Assigned classification CYP3A4” value (CYP3A4 [9]; Lab 1, batch 20) was 0 and the “Assigned classification CYP3A4” value (CYP3A4 [9]; Lab 1, batch 35) was 0. For the same compound, the “Assigned classification CYP3A4” value (CYP3A4 [9]; Lab 1, batch 36) was 0, the “Assigned classification CYP3A4” value (CYP3A4 [9]; Lab 2, batch 20) was 0 and the “Assigned classification CYP3A4” value (CYP3A4 [9]; Lab 2, batch 35) was 0. The “Assigned classification CYP3A4” value (CYP3A4 [9]; Lab 2, batch 36) was 0, the “Assigned classification CYP3A4” value (CYP3A4 [9]; Lab 3, batch 20) was 0 and the “Assigned classification CYP3A4” value (CYP3A4 [9]; Lab 3, batch 35) was 0. For the same compound, the “Assigned classification CYP3A4” value (CYP3A4 [9]; Lab 3, batch 36) was 0.
